Laboratory results from US20150218212A1, “FLUORINATED EPOXYKETONE-BASED TETRAPEPTIDE COMPOUNDS AND USES THEREOF AS PROTEASOME INHIBITORS” (FLUORINOV PHARMA INC., priority 2012, published 2015).

The compounds below were run against T1, chymotrypsin-like (CT-L) proteasome activity (Homo sapiens, UniProt P20618+P28074) (assay: Proteasome enzymatic activity (tumor cell lysates), CT-L, KMS-11). Conditions: KMS-11, mean ± standard deviation.
T1 sequence (P28074 60-263): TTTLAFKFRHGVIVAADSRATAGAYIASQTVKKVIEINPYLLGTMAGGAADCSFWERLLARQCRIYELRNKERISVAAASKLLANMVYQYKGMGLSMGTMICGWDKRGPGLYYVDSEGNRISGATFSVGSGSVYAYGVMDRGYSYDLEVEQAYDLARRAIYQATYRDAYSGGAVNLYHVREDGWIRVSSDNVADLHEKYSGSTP
T1 sequence (P20618 29-241): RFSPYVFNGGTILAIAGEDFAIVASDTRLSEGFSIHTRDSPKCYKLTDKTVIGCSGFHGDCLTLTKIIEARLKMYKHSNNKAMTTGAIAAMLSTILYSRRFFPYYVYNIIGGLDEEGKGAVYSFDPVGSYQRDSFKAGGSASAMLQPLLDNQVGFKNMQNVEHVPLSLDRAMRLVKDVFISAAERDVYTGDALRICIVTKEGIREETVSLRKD
Type: biochemical
Method: Human multiple myeloma cell lines 8226, H929, JJN3, KMH11, KMS11, KMS18, LP1, MM1S, OPM2 and U266 were grown in Iscove modified Dulbecco's medium (IMDM). Human leukemia cell lines K562, OCI-AML2 and U937 were cultured in RPMI-1640 medium. Primary peripheral blood mononuclear cells were isolated from multiple myeloma patients by Ficoll density gradient centrifugation and bone marrow aspirates were obtained from multiple myeloma patients at the Princess Margaret Cancer Centre of the University Health Network (UHN; Toronto, ON, Canada). Primary cells were cultured in IMDM. The collection and use of human tissue for this study was approved by the UHN institutional ethics review board. All cell culture media were obtained from the Ontario Cancer Institute Tissue Culture Media Facility (Toronto, ON, Canada) and were supplemented with 10% fetal calf serum, […] (Hyclone, Logan, Utah). All cells were grown in a humidified incubator at 37° C. with 5% CO2.
Cells were harvested by centrifugation at 1,200 rpm at room temperature. Cell pellets were washed with PBS (phosphate buffered saline) and lysed with assay lysis buffer (50 mM HEPES (N-2-hydroxyethylpiperazine-N′-2-ethanesulfonic acid), pH 7.5; 150 mM NaCl; 1% Triton X-100; 2 mM ATP). Cell lysates were incubated on ice for 30 minutes, mixed by vortex every 5 minutes, and then centrifuged at 12,000 g for 10 minutes. The supernatant was transferred to a 96-well plate. For each assay, 10 μg of total protein were incubated for 1 hour at 37° C. with increasing concentrations (1 nM to 10 μM) of test compound diluted in assay buffer (50 mM tris-HCl (tris(hydroxymethyl)aminomethane-HCl), pH 7.5; 150 mM NaCl). DMSO alone was used as a control in every assay plate. After incubation, a specific fluorogenic proteasome substrate was added to each assay reaction at a final concentration of 40 μM in a total volume of 100 μL. N-Succinyl-Leu-Leu-Val-Tyr-7-amino-4-methylcoumarin (Suc-Leu-Leu-Val-Tyr-AMC) was used for measuring chymotrypsin-like (CT-L) activity, t-butoxycarbonyl-Leu-Arg-Arg-7-amino-4-methylcoumarin (Boc-Leu-Arg-Arg-AMC) for trypsin-like (T-L) activity, and benzyloxycarbonyl-L-leucyl-L-leucyl-L-glutamyl-7-amino-4-methylcoumarin (Z-Leu-Leu-Glu-AMC) for caspase-like (C-L) activity. The excitation wavelength was set at 360 nm and the fluorescence emission wavelength of AMC was detected at 460 nm. The fluorescence of free AMC released during the enzymatic reaction was measured with a SpectraMax M5 fluorescent spectrophotometric plate reader (Molecular Devices, Sunnyvale, Calif.). AMC release rate was measured at 37° C. in a kinetic mode, recording every 5 minutes for 30 minutes. Experiments were performed in triplicate and repeated at least twice.
Table 8 summarizes the data of representative compounds of Formula I for cell viability and CT-L proteasome activity with OCI-AML-2 and KMS-11 cell lines.

Compound | IC50
CC(C)C[C@H](NC(=O)[C@H](COC(F)F)NC(=O)CN1CCOCC1)C(=O)N[C@@H](COC(F)F)C(=O)N[C@@H](CC(C)C)C(=O)[C@@]1(C)CO1 [Example 1, (2S)—N-[(1S)-1-(difluoromethoxymethyl)-2-[[(1S)-3-methyl-1-[(2R)-2-methyloxirane-2-carbonyl]butyl]amino]-2-oxo-ethyl]-2-[[(2S)-3-(difluoromethoxy)-2-[(2-morpholinoacetyl)amino]propanoyl]amino]-4-methyl-pentanamide] | 40.4 ± 6.97 nM
CC(C)C[C@H](NC(=O)[C@H](COC(F)F)NC(=O)CN1CCOCC1)C(=O)N[C@@H](Cc1ccccc1)C(=O)N[C@@H](CC(C)C)C(=O)[C@@]1(C)CO1 [Example 2, (2S)-N-[(1S)-1-benzyl-2-[[(1S)-3-methyl-1-[(2R)-2-methyloxirane-2-carbonyl]butyl]-amino]-2-oxo-ethyl]-2-[[(2S)-3-(difluoromethoxy)-2-[(2-morpholinoacetyl)amino]propanoyl]amino]-4-methyl-pentanamide] | 46.8 ± 1.58 nM
CC(C)C[C@H](NC(=O)[C@H](COC(F)F)NC(=O)CN1CCOCC1)C(=O)N[C@@H](Cc1ccccc1)C(=O)N[C@@H](Cc1ccccc1)C(=O)[C@@]1(C)CO1 [Example 3, (2S)-N-[(1S)-1-benzyl-2-[[(1S)-1-benzyl-2-[(2R)-2-methyloxiran-2-yl]-2-oxo-ethyl]amino]-2-oxo-ethyl]-2-[[(2S)-3-(difluoromethoxy)-2-[(2-morpholinoacetyl)-amino]propanoyl]amino]-4-methyl-pentan-amide] | 38.2 ± 2.81 nM
CC(C)C[C@H](NC(=O)[C@H](COC(F)F)NC(=O)CN1CCOCC1)C(=O)N[C@@H](COC(F)F)C(=O)N[C@@H](Cc1ccccc1)C(=O)[C@@]1(C)CO1 [Example 4, (2S)-N-[(1S)-2-[[(1S)-1-benzyl-2-[(2R)-2-methyloxiran-2-yl]-2-oxo-ethyl]amino]-1-(difluoromethoxymethyl)-2-oxo-ethyl]-2-[[(2S)-3-(difluoromethoxy)-2-[(2-mor-pholinoacetyl)amino]propanoyl]amino]-4 methyl-pentanamide] | 45.7 ± 8.26 nM
CC(C)C[C@H](NC(=O)[C@H](COC(F)F)NC(=O)[C@H](COC(F)F)NC(=O)[C@H](CCc1ccccc1)NC(=O)CN1CCOCC1)C(=O)[C@@]1(C)CO1 [Example 7, (2S)-N-[(1S)-1-(difluoromethoxymethyl)-2-[[(1S)-1-(difluoromethoxymethyl)-2-[[(1S)-3-methyl-1-[(2R)-2-methyloxirane-2-carbo-nyl]butyl]amino]-2-oxo-ethyl]amino]-2-oxo-ethyl]-2-[(2-morpholinoacetyl)amino]-4-phenyl-butanamide] | 33.7 ± 5.6 nM
CC(C)C[C@H](NC(=O)[C@H](Cc1ccccc1)NC(=O)[C@H](COC(F)F)NC(=O)[C@H](COC(F)F)NC(=O)CN1CCOCC1)C(=O)[C@@]1(C)CO1 [Example 11, (2S)-2-[[(2S)-3-(difluoromethoxy)-2-[[(2S)-3-(difluoromethoxy)-2-[(2-morpholinoacetyl)-amino]propanoyl]amino]propanoyl]amino]-N-[(1S)-3-methyl-1-[(2R)-2-methyloxirane-2-carbonyl]butyl]-3-phenyl-propanamide] | 50.7 ± 7.72 nM
CC(C)C[C@H](NC(=O)[C@H](COC(F)F)NC(=O)[C@H](COC(F)F)NC(=O)[C@H](COC(F)F)NC(=O)CN1CCOCC1)C(=O)[C@@]1(C)CO1 [Example 17, (2S)-3-(difluoromethoxy)-N-[(1S)-1-(difluoromethoxymethyl)-2-[[(1S)-1-(difluoro-methoxymethyl)-2-[[(1S)-3-methyl-1-[(2R)-2-methyloxirane-2-carbonyl]butyl]amino]-2-oxo-ethyl]amino]-2-oxo-ethyl]-2-[(2-mor-pholinoacetyl)amino]-propanamide] | 77.8 ± 6.77 nM
